Measured values published in ChEMBL document CHEMBL3879905, “Methods of using macrocyclic modulators of the ghrelin receptor” (2013).
Each block holds one molecule with its values, some of them ahead of it. Active and inactive are the calls of the source. The rule behind the calls is not given here.

What was measured:
[1] = test system: Rattus norvegicus; assay: Gastrokinetic activity in Wistar rat gastroparesis model at 100 ug/kg, iv administered immediately post phenol red containing methylcellulose meal intake measured after 15 mins by colorimetric method relative to vehicle-treated control; format: functional, organism-based
[2] = test system: Rattus norvegicus; assay: Induction of gastric emptying of solid meal in iv dosed Wistar rat gastroparesis model administered immediately post methylcellulose meal containing phenol red intake measured after 15 mins by colorimetric method; format: functional, organism-based; conditions: Stomach
[3] = test system: Rattus norvegicus; assay: Reversal of morphine-induced intestinal transit delaying in iv dosed Sprague-Dawley rat postoperative ileus model at 100 ug/kg, iv administered prior to 99mTC labeled methylcellulose meal intake measured after 15 mins by gamma counting method; format: functional, organism-based
[4] = test system: Rattus norvegicus; assay: Induction of gastric emptying of high caloric meal in Wistar rat gastroparesis model at 0.08 to […] mg/kg, iv after 60 mins; format: functional, organism-based; conditions: Stomach
[5] = molecular target: Growth hormone secretagogue receptor type 1 (Homo sapiens, UniProt Q92847); assay: Displacement of [125I]-Ghrelin from human GSHR1a transfected in HEK293 cell membranes after 30 mins by microplate scintillation and luminescence counting method
[6] = test system: Rattus norvegicus; assay: Induction of gastric emptying of solid meal in Sprague-Dawley rat postoperative ileus model at 100 to 300 ug/kg, iv administered prior to 99mTC labeled methylcellulose meal intake measured after 15 mins by gamma counting method relative to vehicle-treated control; format: functional, organism-based; conditions: Stomach
[7] = test system: Rattus norvegicus; assay: Induction of gastric emptying of solid meal in Wistar rat gastroparesis model at 30 ug/kg, iv administered immediately post methylcellulose meal containing phenol red intake measured after 15 mins by colorimetric method relative to vehicle-treated control; format: functional, organism-based; conditions: Stomach
[8] = species on record: Homo sapiens; assay: Selectivity for human GSHR1a over human motilin receptor
[9] = test system: Rattus norvegicus; assay: Induction of gastric emptying of solid meal in Wistar rat gastroparesis model at 100 ug/kg, iv administered immediately post phenol red containing methylcellulose meal intake measured after 15 mins by colorimetric method relative to vehicle-treated control; format: functional, Stomach
[10] = Metabolic stability in human plasma assessed as compound recovery in presence of PBS at 2 hrs by LC-MS analysis; format: ADME, cell-free; conditions: read-out: Drug recovery
[11] = molecular target: Cytochrome P450 3A4 (Homo sapiens, UniProt P08684); assay: Inhibition of human CYP3A4 at 0.0457 to 100 uM; format: ADME
[12] = test system: Rattus norvegicus; assay: Induction of gastric emptying of solid meal in Wistar rat gastroparesis model at 10 mg/kg, iv administered immediately post phenol red containing methylcellulose meal intake measured after 15 mins by colorimetric method relative to vehicle-treated control; format: functional, Stomach
[13] = test system: Rattus norvegicus; assay: Gastrokinetic activity in Wistar rat gastroparesis model at 10 mg/kg, iv administered immediately post phenol red containing methylcellulose meal intake measured after 15 mins by colorimetric method relative to vehicle-treated control; format: functional, organism-based
[14] = test system: Rattus norvegicus; assay: Effect on pulsatile growth hormone release in plasma of free moving Sprague-Dawley rat at 5 ug/kg, iv administered at 1100 and 1300 […] during 6 hrs of sampling period measured every 15 mins over 6 hrs of sampling period by radioimmunoassay relative to vehicle-treated control; format: functional, organism-based
[15] = test system: Rattus norvegicus; assay: Induction of gastric emptying of solid meal in Wistar rat gastroparesis model at 5 to 50 ug/kg, iv administered immediately post methylcellulose meal containing phenol red intake measured after 15 mins by colorimetric method; format: functional, organism-based; conditions: Stomach
[16] = test system: Rattus norvegicus; assay: Gastrokinetic activity in Wistar rat gastroparesis model at 20 ug/kg, iv administered immediately post phenol red containing methylcellulose meal intake measured after 15 mins by colorimetric method relative to vehicle-treated control; format: functional, organism-based
[17] = test system: Rattus norvegicus; assay: Induction of gastric emptying of solid meal in Wistar rat gastroparesis model at 20 ug/kg, iv administered immediately post phenol red containing methylcellulose meal intake measured after 15 mins by colorimetric method relative to vehicle-treated control; format: functional, Stomach

Sequence of Cytochrome P450 3A4 (P08684 whole entry): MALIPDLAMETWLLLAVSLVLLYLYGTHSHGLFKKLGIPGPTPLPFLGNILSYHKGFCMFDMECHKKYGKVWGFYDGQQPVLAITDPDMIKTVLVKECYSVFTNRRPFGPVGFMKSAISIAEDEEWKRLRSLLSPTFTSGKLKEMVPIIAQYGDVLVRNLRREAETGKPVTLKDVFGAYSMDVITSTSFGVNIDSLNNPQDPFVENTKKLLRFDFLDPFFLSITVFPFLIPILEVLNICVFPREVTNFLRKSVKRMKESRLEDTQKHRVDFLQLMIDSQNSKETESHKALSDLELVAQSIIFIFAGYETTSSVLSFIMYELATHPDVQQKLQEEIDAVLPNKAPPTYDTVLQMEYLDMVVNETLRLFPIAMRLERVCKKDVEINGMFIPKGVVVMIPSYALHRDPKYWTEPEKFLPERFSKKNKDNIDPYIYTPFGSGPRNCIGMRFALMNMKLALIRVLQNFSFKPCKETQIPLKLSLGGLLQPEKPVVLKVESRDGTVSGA
Sequence of Growth hormone secretagogue receptor type 1 (Q92847 whole entry): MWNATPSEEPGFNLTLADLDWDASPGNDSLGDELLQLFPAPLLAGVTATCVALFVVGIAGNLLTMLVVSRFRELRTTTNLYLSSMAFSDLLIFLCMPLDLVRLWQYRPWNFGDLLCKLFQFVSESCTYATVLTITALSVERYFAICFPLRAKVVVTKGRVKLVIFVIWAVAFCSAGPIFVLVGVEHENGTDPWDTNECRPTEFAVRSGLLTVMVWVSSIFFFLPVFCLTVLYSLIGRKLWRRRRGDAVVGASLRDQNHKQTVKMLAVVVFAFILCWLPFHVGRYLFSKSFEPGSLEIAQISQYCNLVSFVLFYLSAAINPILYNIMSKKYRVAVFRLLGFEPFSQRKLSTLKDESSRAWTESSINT

%max [5]: 96%
SMILES: C[C@@H]1CN[C@@H](C2CC2)C(=O)N(C)[C@H](C)C(=O)N[C@H](Cc2ccc(F)cc2)C(=O)NCCCc2ccccc2O1
Activity [1]: Active | Activity [2]: Dose-dependent effect | Activity [3]: Dose-dependent effect | Activity [4]: Active | Activity [6]: Active

Selectivity ratio [8]: 28000
SMILES: CC[C@H](C)[C@@H]1NCCOc2ccccc2CCCNC(=O)[C@@H](Cc2ccc(Cl)cc2)NC(=O)[C@@H](C)N(C)C1=O
Activity [1]: Active | Activity [7]: Active | Activity [4]: Active | Activity [9]: 30 - 39%

remaining at 2 h [10]: 99% | inhibition (INH) [11]: Active
SMILES: C[C@@H]1CN[C@@H](C2CC2)C(=O)N(C)[C@H](C)C(=O)N[C@H](Cc2ccc(F)cc2)C(=O)NCCCc2ccccc2O1 [ULIMORELIN]
Activity [9]: 30 - 39%

SMILES: CCN(CC)CCNC(=O)c1cc(Cl)c(N)cc1OC.Cl
Activity [12]: 41% | Activity [13]: Active

SMILES: CCCCCCCC(=O)OC[C@H](NC(=O)[C@H](CO)NC(=O)CN)C(=O)N[C@@H](Cc1ccccc1)C(=O)N[C@@H](CC(C)C)C(=O)N[C@@H](CO)C(=O)N1CCC[C@H]1C(=O)N[C@@H](CCC(=O)O)C(=O)N[C@@H](Cc1cnc[nH]1)C(=O)N[C@@H](CCC(N)=O)C(=O)N[C@@H](CCCNC(=N)N)C(=O)N[C@H](C(=O)N[C@@H](CCC(N)=O)C(=O)N[C@@H](CCC(N)=O)C(=O)N[C@@H](CCCNC(=N)N)C(=O)N[C@@H](CCCCN)C(=O)N[C@@H](CCC(=O)O)C(=O)N[C@@H](CO)C(=O)N[C@@H](CCCCN)C(=O)N[C@@H](CCCCN)C(=O)N1CCC[C@H]1C(=O)N1CCC[C@H]1C(=O)N[C@@H](C)C(=O)N[C@@H](CCCCN)C(=O)N[C@@H](CC(C)C)C(=O)N[C@@H](CCC(N)=O)C(=O)N1CCC[C@H]1C(=O)N[C@@H](CCCNC(=N)N)C(=O)O)C(C)C
Activity [14]: Active | Activity [15]: Active

SMILES: C[C@H](NC(=O)[C@@H](Cc1c[nH]c2ccccc12)NC(=O)[C@@H](N)Cc1cnc[nH]1)C(=O)N[C@H](Cc1c[nH]c2ccccc12)C(=O)N[C@@H](Cc1ccccc1)C(=O)N[C@@H](CCCCN)C(N)=O
Activity [16]: Active | Activity [17]: 40%
